ChEMBL document CHEMBL1777734, “Molecular hybridization of 4-azahexacyclo[5.4.1.0(2,6).0(3,10).0(5,9).0(8,11)]dodecane-3-ol with sigma (σ) receptor ligands modulates off-target activity and subtype selectivity” (Bioorg Med Chem Lett, 2011)

Legend:
[1] = Displacement of [3H]DTG from sigma 2 receptor in rat brain homogenate; assay type: tissue-based
[2] = target: Sigma non-opioid intracellular receptor 1 (Rattus norvegicus, UniProt Q9R0C9); experiment: Displacement of [3H](+)-pentazocine from sigma 1 receptor in rat brain homogenate; assay type: tissue-based
Chain of Sigma non-opioid intracellular receptor 1 (Q9R0C9 whole entry): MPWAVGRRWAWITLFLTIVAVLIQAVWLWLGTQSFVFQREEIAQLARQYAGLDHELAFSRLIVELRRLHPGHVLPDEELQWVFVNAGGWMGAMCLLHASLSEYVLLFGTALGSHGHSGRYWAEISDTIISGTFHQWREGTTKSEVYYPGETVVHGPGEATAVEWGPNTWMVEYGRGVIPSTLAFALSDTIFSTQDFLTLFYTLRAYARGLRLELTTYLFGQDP

D(1A) dopamine receptor = D(1A) dopamine receptor (Homo sapiens, UniProt P21728); experiment: Displacement of [3H][…] from human D1 receptor expressed in HEK cells; assay type: cell-based, HEK293
Chain of D(1A) dopamine receptor (P21728 whole entry): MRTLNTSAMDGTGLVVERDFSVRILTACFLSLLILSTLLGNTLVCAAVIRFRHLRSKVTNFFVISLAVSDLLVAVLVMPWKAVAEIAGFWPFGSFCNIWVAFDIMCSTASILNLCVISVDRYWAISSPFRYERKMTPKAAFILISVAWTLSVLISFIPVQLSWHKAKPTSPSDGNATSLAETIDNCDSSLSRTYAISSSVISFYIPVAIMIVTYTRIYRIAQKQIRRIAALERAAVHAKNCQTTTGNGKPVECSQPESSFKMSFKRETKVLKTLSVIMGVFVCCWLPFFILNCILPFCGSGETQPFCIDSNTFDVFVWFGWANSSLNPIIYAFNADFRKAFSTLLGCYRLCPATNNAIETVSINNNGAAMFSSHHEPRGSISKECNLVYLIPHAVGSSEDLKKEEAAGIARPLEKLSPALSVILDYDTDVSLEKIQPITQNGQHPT

D(1B) dopamine receptor = D(1B) dopamine receptor (Homo sapiens, UniProt P21918); experiment: Displacement of [3H][…] from human D5 receptor expressed in HEK cells; assay type: cell-based, HEK293
Chain of D(1B) dopamine receptor (P21918 whole entry): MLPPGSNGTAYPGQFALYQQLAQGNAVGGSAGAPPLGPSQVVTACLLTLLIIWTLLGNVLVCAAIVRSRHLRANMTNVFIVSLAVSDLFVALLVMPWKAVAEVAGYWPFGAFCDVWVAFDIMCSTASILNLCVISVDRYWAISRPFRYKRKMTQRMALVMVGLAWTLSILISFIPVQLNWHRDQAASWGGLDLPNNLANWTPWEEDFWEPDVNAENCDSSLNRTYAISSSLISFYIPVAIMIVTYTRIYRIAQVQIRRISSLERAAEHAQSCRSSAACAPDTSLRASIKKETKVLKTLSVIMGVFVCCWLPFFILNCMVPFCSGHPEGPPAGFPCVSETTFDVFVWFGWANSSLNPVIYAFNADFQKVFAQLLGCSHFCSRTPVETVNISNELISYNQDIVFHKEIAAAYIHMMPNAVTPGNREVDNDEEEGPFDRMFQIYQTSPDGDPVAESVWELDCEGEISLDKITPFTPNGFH

D(2) dopamine receptor [3] = target: T1, D(2) dopamine receptor (Homo sapiens, UniProt P14416); experiment: Displacement of [3H]N-methylspiperone from human D2 receptor expressed in HEK cells; assay type: cell-based, HEK293
T1 sequence (P14416 whole entry): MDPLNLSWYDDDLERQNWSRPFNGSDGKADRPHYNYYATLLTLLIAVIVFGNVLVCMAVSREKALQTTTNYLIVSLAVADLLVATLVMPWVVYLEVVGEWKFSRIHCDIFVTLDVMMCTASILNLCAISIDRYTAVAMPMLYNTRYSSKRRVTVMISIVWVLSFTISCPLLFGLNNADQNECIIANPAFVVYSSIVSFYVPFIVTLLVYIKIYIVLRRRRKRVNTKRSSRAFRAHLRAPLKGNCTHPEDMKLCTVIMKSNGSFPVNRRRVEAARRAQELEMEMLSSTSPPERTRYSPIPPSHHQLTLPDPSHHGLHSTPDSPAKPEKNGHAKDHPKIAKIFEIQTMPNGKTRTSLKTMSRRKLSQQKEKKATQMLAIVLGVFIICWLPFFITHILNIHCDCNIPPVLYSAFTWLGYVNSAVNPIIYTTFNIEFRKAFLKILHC

D(3) dopamine receptor [4] = target: T2, D(3) dopamine receptor (Homo sapiens, UniProt P35462); experiment: Displacement of [3H]N-methylspiperone from human D3 receptor expressed in HEK cells; assay type: cell-based, HEK293
T2 sequence (P35462 whole entry): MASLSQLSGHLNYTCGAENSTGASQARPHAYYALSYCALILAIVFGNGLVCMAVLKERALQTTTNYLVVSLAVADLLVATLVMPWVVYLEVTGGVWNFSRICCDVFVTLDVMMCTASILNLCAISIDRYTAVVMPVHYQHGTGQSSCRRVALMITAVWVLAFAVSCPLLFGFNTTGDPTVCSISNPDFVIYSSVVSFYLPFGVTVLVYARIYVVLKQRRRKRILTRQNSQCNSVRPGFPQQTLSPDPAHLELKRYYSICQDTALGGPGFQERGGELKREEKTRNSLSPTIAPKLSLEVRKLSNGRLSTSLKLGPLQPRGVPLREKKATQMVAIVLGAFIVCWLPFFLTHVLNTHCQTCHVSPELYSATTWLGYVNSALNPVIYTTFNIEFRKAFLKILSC

D(4) dopamine receptor = target: T3, D(4) dopamine receptor (Homo sapiens, UniProt P21917); experiment: Displacement of [3H]N-methylspiperone from human D4 receptor expressed in HEK cells; assay type: cell-based, HEK293
T3 sequence (P21917 whole entry): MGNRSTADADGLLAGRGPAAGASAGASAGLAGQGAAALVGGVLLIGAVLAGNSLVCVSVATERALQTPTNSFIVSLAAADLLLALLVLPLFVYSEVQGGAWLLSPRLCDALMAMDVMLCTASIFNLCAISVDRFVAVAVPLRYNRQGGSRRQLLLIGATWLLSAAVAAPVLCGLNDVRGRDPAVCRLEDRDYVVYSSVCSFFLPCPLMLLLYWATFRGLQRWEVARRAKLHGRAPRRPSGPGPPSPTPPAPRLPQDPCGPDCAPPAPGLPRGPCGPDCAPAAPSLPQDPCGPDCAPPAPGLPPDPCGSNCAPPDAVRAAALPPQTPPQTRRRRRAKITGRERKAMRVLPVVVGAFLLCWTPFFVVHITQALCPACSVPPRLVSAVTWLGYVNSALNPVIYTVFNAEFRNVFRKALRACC

D(2) dopamine receptor [5] = target: T1, D(2) dopamine receptor; experiment: Displacement of [3H]N-methylspiperone from human D2 receptor expressed in HEK cells at 10 uM; assay type: cell-based; conditions: HEK293
Rattus norvegicus = species on record: Rattus norvegicus; experiment: Ratio of Ki for rat sigma 2 receptor to Ki for rat sigma 1 receptor
D(3) dopamine receptor [6] = target: T2, D(3) dopamine receptor; experiment: Displacement of [3H]N-methylspiperone from human D3 receptor expressed in HEK cells at 10 uM; assay type: cell-based; conditions: HEK293

Row | Compound | Ki [1] [nM] | Ki [2] [nM] | Ki (D(1A) dopamine receptor) [nM] | Ki (D(2) dopamine receptor [3]) [nM] | Ki (D(3) dopamine receptor [4]) [nM] | Activity (D(2) dopamine receptor [5]) [%] | Ratio Ki (Rattus norvegicus) | other results
1 | O=C(CCCN1CCC(O)(c2ccc(Cl)cc2)CC1)c1ccc(F)cc1 [HALOPERIDOL] | 7.93 |  |  |  |  |  |  | 
2 | COc1cc2c(cc1OC)CN(CCNC(=O)c1cc(C)ccc1OC)CC2 | 13.3 |  |  |  |  |  |  | 
3 | O=C(CCCN1C2C3C4CC5C6C4C2C6C1(O)C53)c1ccc(F)cc1 (stereo not given) | 55 | 27 | 209 | 1720 | 1960 |  |  | Ki (D(1B) dopamine receptor): > 10000 nM; Ki (D(4) dopamine receptor): 93 nM
4 | CCCN(CCC)CCc1ccc(OC)c(OCCc2ccccc2)c1 | 212 |  |  |  |  |  |  | IC50 (D(1A) dopamine receptor): > 10000 nM; IC50 (D(2) dopamine receptor [3]): > 10000 nM
5 | COc1ccc(CCN2C3C4C5CC6C7C5C3C7C2(O)C64)cc1OCCc1ccccc1 (stereo not given) | 93 | 20 | > 10000 | > 10000 |  | < 50 | 4.7 | 
6 | COc1ccc(C)cc1C(=O)NCCN1C2C3C4CC5C6C4C2C6C1(O)C53 (stereo not given) | 225 | 7.6 |  | > 10000 | > 10000 | < 50 | 30 | Activity (D(3) dopamine receptor [6]): < 50%
